The test deals with carbon tetrachloride induced liver injury in CLEC1b fl/fl PF4cre mice. The experiment in a line: Carbon tetrachloride injection in CLEC1b fl/fl PF4cre (KO) mice pre-treated with Etanercept. The settings on record: for Number of neutrophils per gram of liver tissue: 48 hours after carbon tetrachloride injection. It is filed as in vivo, mouse. The method, then:
Kupffer cells isolated from WT mouse livers were plated in a tissue culture well, treated with lipopolysaccharide (LPS) and incubated with either platelets from CLEC2 deficient animals or WT platelets. (A) Production of TNF-alpha by Kupffer cells was measured in response to LPS plus either CLEC-2 deficient (KO) platelets or WT platelets (n=4 per group). (B) Isolated Kupffer cells (F480^+, shown in green), were incubated with either CLEC2 deficient or WT platelets (CD41^+, shown in purple). DAPI (blue) was used as a nuclear stain. Representative images (63× magnification) are shown. (C) Serum was isolated from WT and CLEC1b fl/fl PF4cre (KO) mice at 24 hours after carbon tetrachloride injection and serum TNF-alpha levels measured by ELISA. Levels are shown as picograms/ml (n=6/group) (*P<0.05, **P<0.01, ***P<0.001), (D) CLEC1b fl/fl PF4cre mice were pre-treated with an anti-TNF-alpha monoclonal antibody (Etanercept) before carbon tetrachloride injection (KO+AB). WT and CLEC1b fl/fl PF4cre mice not pre-treated before carbon tetrachloride injection were used as controls (WT and KO, accordingly). Mice were sacrificed 48 hours after the carbon tetrachloride injection. […]
Mouse livers were harvested after the animal was euthanized under deep sedation after cardiac puncture. […] The resulting immune cells were then purified using an Optiprep gradient (Sigma) and analysed by flow cytometry. […] Absolute cell counts were determined with AccuCheck Counting Beads (Invitrogen), and the number of cells was normalised to the total liver weight. Data were analysed using a CyAn ADP flow cytometer (Beckman Coulter) or a BD LSRII using Summit version 4.3 or FlowJo version 10.0.7 software where appropriate.
Serum was isolated from whole blood and levels of liver-specific enzymes AST and ALT were measured on a clinical autoanalyser, according to standard protocols in the Biochemistry Department at the Birmingham Women's Hospital, Birmingham, UK. […]

Regarding Etanercept, the “Number of neutrophils per gram of liver tissue” value is listed as “substantially reduced” (compared to CLEC1b fl/fl PF4cre mice not pre-treated with antibody (FIG. 3D)) and “comparable to WT control” (pre-treated KO mice relative to WT control (FIG. 3D)). Moreover, the “Serum ALT levels” value (48 hours post carbon tetrachloride, compared to CLEC-2 deficient mice not given antibody (FIG. 3E)) is on record as “considerably higher”.
